In the OligoGym collection:
HELM strings list units from the 5' end as sugar, base in round brackets, then linkage (d deoxyribose, r ribose, m 2'-O-methyl, p phosphodiester). Strings are as the collection lists them; they lack the last nucleoside at the 3' end of the tested compound. [moe] = 2'-O-(2-methoxyethyl) (MOE); [sp] = phosphorothioate linkage; [m5C] = 5-methylcytosine

Each substance was assayed against PRNP (assay: mouse, dose not given). Details: ASO.
Work on “RNA1{[moe](T)[sp].[moe](G)p.[moe](T)p.[moe]([m5C])p.[moe](A)p.[moe](G)p.d(T)[sp].d(T)[sp].d(T)[sp].d(T)[sp].d(T)[sp].d([m5C])[sp].d([m5C])[sp].d([m5C])[sp].d([m5C])[sp].d(A)[sp].[moe]([m5C])p.[moe](A)[sp].[moe](T)}$$$$ (last 3' nucleoside missing)” yielded a 3 h FOB score of 0.5 score 0-7.
With “RNA1{[moe](G)[sp].[moe](G)p.[moe](A)p.[moe](A)p.[moe](T)[sp].d(G)[sp].d([m5C])[sp].d([m5C])[sp].d(A)[sp].d([m5C])[sp].d(A)[sp].d(T)[sp].d(A)[sp].d(T)[sp].d(A)[sp].[moe](G)p.[moe](G)p.[moe](G)[sp].[moe](T)}$$$$ (last 3' nucleoside missing)” the 3 h FOB score was 4 score 0-7.
For “RNA1{[moe](T)[sp].[moe]([m5C])p.[moe](A)p.[moe](G)p.[moe](T)p.d(T)[sp].d(T)[sp].d(T)[sp].d(T)[sp].d([m5C])[sp].d([m5C])[sp].d([m5C])[sp].d([m5C])[sp].d(A)[sp].[moe]([m5C])p.[moe](A)p.[moe](T)[sp].[moe](A)}$$$$ (last 3' nucleoside missing)”, the 3 h FOB score was 0 score 0-7.
For “RNA1{[moe](G)[sp].[moe](T)p.[moe]([m5C])p.[moe](A)p.[moe](G)p.[moe](T)p.d(T)[sp].d(T)[sp].d(T)[sp].d(T)[sp].d([m5C])[sp].d([m5C])[sp].d([m5C])[sp].d([m5C])[sp].d(A)[sp].d([m5C])[sp].[moe](A)p.[moe](T)[sp].[moe](A)}$$$$ (last 3' nucleoside missing)”, the 3 h FOB score was 0 score 0-7.
“RNA1{[moe](G)[sp].[moe]([m5C])p.[moe](T)p.[moe](A)p.[moe](T)[sp].d([m5C])[sp].d(T)[sp].d(T)[sp].d(T)[sp].d([m5C])[sp].d(T)[sp].d(A)[sp].d(T)[sp].d(T)[sp].d(T)[sp].[moe](G)p.[moe](T)p.[moe](G)[sp].[moe](T)}$$$$ (last 3' nucleoside missing)” showed a 3 h FOB score of 1 score 0-7.
In the case of “RNA1{[moe](T)[sp].[moe]([m5C])p.[moe](G)p.[moe]([m5C])p.[moe]([m5C])[sp].d(A)[sp].d(T)[sp].d(A)[sp].d(A)[sp].d(T)[sp].d(G)[sp].d(A)[sp].d([m5C])[sp].d(T)[sp].d(G)[sp].[moe]([m5C])p.[moe](T)p.[moe]([m5C])[sp].[moe](T)}$$$$ (last 3' nucleoside missing)”, the 3 h FOB score is reported as 4.5 score 0-7.
Substance “RNA1{[moe](A)[sp].[moe](T)p.[moe](T)p.[moe](T)p.[moe](A)[sp].d([m5C])[sp].d(T)[sp].d([m5C])[sp].d(T)[sp].d(T)[sp].d(G)[sp].d(T)[sp].d(T)[sp].d(G)[sp].d(A)[sp].[moe](A)p.[moe]([m5C])p.[moe](A)[sp].[moe](G)}$$$$ (last 3' nucleoside missing)” has a 3 h FOB score of 3.75 score 0-7.
“RNA1{[moe]([m5C])[sp].[moe](T)p.[moe]([m5C])p.[moe](T)p.[moe](A)[sp].d(T)[sp].d(G)[sp].d(T)[sp].d(T)[sp].d(T)[sp].d(T)[sp].d([m5C])[sp].d([m5C])[sp].[moe](A)p.[moe](G)p.[moe](T)[sp].[moe](G)}$$$$ (last 3' nucleoside missing)” was tested, and the 3 h FOB score was 0.75 score 0-7.
“RNA1{[moe](T)[sp].[moe]([m5C])p.[moe](A)p.[moe](G)p.[moe](T)[sp].d(T)[sp].d(T)[sp].d(T)[sp].d(T)[sp].d([m5C])[sp].d([m5C])[sp].d([m5C])[sp].d([m5C])[sp].[moe](A)p.[moe]([m5C])p.[moe](A)[sp].[moe](T)}$$$$ (last 3' nucleoside missing)” was tested, and the 3 h FOB score was 0 score 0-7.
Work on “RNA1{[moe](G)[sp].[moe](G)p.[moe]([m5C])p.[moe](T)p.[moe](T)[sp].d(A)[sp].d([m5C])[sp].d(T)[sp].d([m5C])[sp].d(G)[sp].d(G)[sp].d([m5C])[sp].d(T)[sp].d(T)[sp].d(G)[sp].[moe](T)p.[moe](T)p.[moe]([m5C])[sp].[moe]([m5C])}$$$$ (last 3' nucleoside missing)” yielded a 3 h FOB score of 3.75 score 0-7.
With “RNA1{[moe](T)[sp].[moe](A)p.[moe]([m5C])p.[moe](T)p.[moe](T)[sp].d(G)[sp].d(T)[sp].d([m5C])[sp].d(A)[sp].d(G)[sp].d(T)[sp].d(T)[sp].d(T)[sp].d(T)[sp].d(T)[sp].[moe]([m5C])p.[moe]([m5C])p.[moe]([m5C])[sp].[moe]([m5C])}$$$$ (last 3' nucleoside missing)” the 3 h FOB score was 4.5 score 0-7.
In the case of “RNA1{[moe]([m5C])[sp].[moe](T)p.[moe](G)p.[moe](T)p.[moe](T)[sp].d(A)[sp].d(T)[sp].d(G)[sp].d(T)[sp].d(T)[sp].d(A)[sp].d(T)[sp].d(T)[sp].d(A)[sp].d(T)[sp].[moe](T)p.[moe](G)p.[moe](T)[sp].[moe](T)}$$$$ (last 3' nucleoside missing)”, the 3 h FOB score is reported as 3.75 score 0-7.
For “RNA1{[moe](G)[sp].[moe](T)p.[moe](T)p.[moe]([m5C])p.[moe](T)[sp].d(T)[sp].d(T)[sp].d(T)[sp].d([m5C])[sp].d(T)[sp].d(T)[sp].d(T)[sp].d(G)[sp].d([m5C])[sp].d(A)[sp].[moe]([m5C])p.[moe](A)p.[moe]([m5C])[sp].[moe](T)}$$$$ (last 3' nucleoside missing)”, the 3 h FOB score was 6.25 score 0-7.
For “RNA1{[moe](G)[sp].[moe](T)p.[moe](T)p.[moe](G)p.[moe](T)[sp].d(T)[sp].d(G)[sp].d(T)[sp].d(T)[sp].d(T)[sp].d([m5C])[sp].d(T)[sp].d(T)[sp].d(T)[sp].d(T)[sp].[moe]([m5C])p.[moe](T)p.[moe](G)[sp].[moe](G)}$$$$ (last 3' nucleoside missing)”, the 3 h FOB score was 6 score 0-7.
“RNA1{[moe](A)[sp].[moe](T)p.[moe](T)p.[moe](T)p.[moe](A)[sp].d(G)[sp].d(G)[sp].d([m5C])[sp].d(T)[sp].d([m5C])[sp].d(T)[sp].d(T)[sp].d(T)[sp].d(T)[sp].d([m5C])[sp].[moe]([m5C])p.[moe](A)p.[moe](G)[sp].[moe](G)}$$$$ (last 3' nucleoside missing)” gave a 3 h FOB score of 4.75 score 0-7.
“RNA1{[moe](G)[sp].[moe]([m5C])p.[moe](T)p.[moe](T)p.d(A)[sp].d(T)[sp].d(T)[sp].d(A)[sp].d(T)[sp].d(T)[sp].d([m5C])[sp].d(A)[sp].d(T)[sp].d(G)[sp].[moe](T)p.[moe](T)p.[moe]([m5C])p.[moe](T)[sp].[moe]([m5C])}$$$$ (last 3' nucleoside missing)” showed a 3 h FOB score of 1 score 0-7.
For “RNA1{[moe](G)[sp].[moe](T)p.[moe](T)p.[moe]([m5C])p.[moe](T)[sp].d(A)[sp].d(A)[sp].d(T)[sp].d(T)[sp].d(T)[sp].d(T)[sp].d(A)[sp].d(G)[sp].d(A)[sp].d(T)[sp].[moe]([m5C])p.[moe](A)p.[moe](T)[sp].[moe](T)}$$$$ (last 3' nucleoside missing)”, the 3 h FOB score was 2 score 0-7.
“RNA1{[moe](T)[sp].[moe](G)p.[moe](G)p.[moe](T)p.[moe](T)[sp].d(A)[sp].d([m5C])[sp].d(A)[sp].d(T)[sp].d(A)[sp].d(A)[sp].d(T)[sp].d(G)[sp].d(T)[sp].d(T)[sp].[moe]([m5C])p.[moe](A)p.[moe](T)[sp].[moe](T)}$$$$ (last 3' nucleoside missing)” showed a 3 h FOB score of 4 score 0-7.
Substance “RNA1{[moe](G)[sp].[moe](T)p.[moe](T)p.[moe](T)p.[moe]([m5C])[sp].d([m5C])[sp].d([m5C])[sp].d(A)[sp].d([m5C])[sp].d(A)[sp].d(T)[sp].d(A)[sp].d(T)[sp].d(T)[sp].d(A)[sp].[moe](A)p.[moe](G)p.[moe](T)[sp].[moe](A)}$$$$ (last 3' nucleoside missing)” has a 3 h FOB score of 1 score 0-7.
Work on “RNA1{[moe]([m5C])[sp].[moe](G)p.[moe](T)p.[moe](T)p.[moe](G)[sp].d(T)[sp].d(T)[sp].d(G)[sp].d(A)[sp].d(T)[sp].d(T)[sp].d(T)[sp].d(T)[sp].d(T)[sp].d([m5C])[sp].[moe]([m5C])p.[moe](A)p.[moe](G)[sp].[moe](A)}$$$$ (last 3' nucleoside missing)” yielded a 3 h FOB score of 1.75 score 0-7.
“RNA1{[moe]([m5C])[sp].[moe](G)p.[moe](T)p.[moe]([m5C])p.d([m5C])[sp].d(A)[sp].d(T)[sp].d(T)[sp].d(T)[sp].d(T)[sp].d([m5C])[sp].d(T)[sp].d(G)[sp].d(T)[sp].[moe](G)p.[moe]([m5C])p.[moe](T)p.[moe](T)[sp].[moe](T)}$$$$ (last 3' nucleoside missing)” gave a 3 h FOB score of 3 score 0-7.
“RNA1{[moe](T)[sp].[moe]([m5C])p.[moe](T)p.[moe]([m5C])p.[moe](A)[sp].d(G)[sp].d(G)[sp].d(T)[sp].d([m5C])[sp].d(T)[sp].d(A)[sp].d([m5C])[sp].d(T)[sp].d([m5C])[sp].d(T)[sp].[moe](A)p.[moe](T)p.[moe](G)[sp].[moe](T)}$$$$ (last 3' nucleoside missing)” gave a 3 h FOB score of 1.25 score 0-7.
“RNA1{[moe](G)[sp].[moe](A)p.[moe](G)p.[moe]([m5C])p.[moe](A)[sp].d(A)[sp].d(T)[sp].d(A)[sp].d(T)[sp].d(A)[sp].d(T)[sp].d(T)[sp].d([m5C])[sp].d(A)[sp].d([m5C])[sp].[moe]([m5C])p.[moe](A)p.[moe](A)[sp].[moe](A)}$$$$ (last 3' nucleoside missing)” was tested, and the 3 h FOB score was 2.5 score 0-7.
“RNA1{[moe](G)[sp].[moe](T)p.[moe](G)p.[moe](T)p.d([m5C])[sp].d(A)[sp].d(T)[sp].d(A)[sp].d(A)[sp].d(T)[sp].d(T)[sp].d(T)[sp].d(T)[sp].d([m5C])[sp].[moe](T)p.[moe](T)p.[moe](A)p.[moe](G)[sp].[moe]([m5C])}$$$$ (last 3' nucleoside missing)” gave a 3 h FOB score of 0 score 0-7.
“RNA1{[moe](T)[sp].[moe](T)p.[moe](G)p.[moe](T)p.[moe](G)[sp].d(A)[sp].d([m5C])[sp].d(A)[sp].d(A)[sp].d(T)[sp].d(A)[sp].d(T)[sp].d(T)[sp].d(T)[sp].d(A)[sp].[moe]([m5C])p.[moe](T)p.[moe]([m5C])[sp].[moe](T)}$$$$ (last 3' nucleoside missing)” was tested, and the 3 h FOB score was 0 score 0-7.
“RNA1{[moe](T)[sp].[moe]([m5C])p.[moe](T)p.[moe]([m5C])p.[moe]([m5C])[sp].d(T)[sp].d(T)[sp].d(G)[sp].d(A)[sp].d(A)[sp].d(T)[sp].d(T)[sp].d(T)[sp].d([m5C])[sp].d(T)[sp].[moe](T)p.[moe](T)p.[moe]([m5C])[sp].[moe](A)}$$$$ (last 3' nucleoside missing)” gave a 3 h FOB score of 0 score 0-7.
